{
  "source": "patent US20200048305A1",
  "about": "“GLUTATHIONE-CHOLESTEROL DERIVATIVES AS BRAIN TARGETING AGENTS” (South Dakota Board of Regents, priority 2018, published 2020)",
  "key": {"[1]": {"assay": "Chemical stability of GUNW-3 in methanol-ammonium aqueous solution", "assay_type": "physicochemical", "settings": "methanol-ammonium aqueous solution (1:1), pH 10.8, 4° C., checked 7 days", "description": "The stability of GUNW-3 in a methanol-ammonium aqueous solution (1:1) at pH 10.8, the pH GUNW-3 was soluble, was checked continuously for 7 days at 4° C. (FIG. 4). […] However, it started to decompose quickly after 3 days."}, "[2]": {"test_system": "CV-1 cells (monkey kidney cells)", "assay": "In-vitro cytotoxicity by the MTT assay, CV-1 cells", "assay_type": "cell-based", "settings": "Primates"}, "[3]": {"test_system": "NCI-H226 cells (human lung cancer cells)", "assay": "In-vitro cytotoxicity by the MTT assay, NCI-H226 cells", "assay_type": "cell-based"}, "[4]": {"assay": "Brain-targeting of GUNW-3 DiR micelles, in-vivo whole body fluorescence imaging"}},
  "data": [
    {"smiles": "CC(C)CCCC(C)C1CCC2C3CC=C4CC(OCCOCCOC(=O)CCSCC(NC(=O)CCC(N)C(=O)O)C(=O)NCC(=O)O)CC[C@@]4(C)C3CC[C@@]12C", "note": "(stereo partly drawn) [GUNW-3]", "values": [
      {"measurement": "stability of GUNW-3", "setting": "[1]", "result": "stable in the first 3 days"},
      {"measurement": "IC50", "setting": "[2]", "result": 650, "unit": "µM"},
      {"measurement": "IC50", "setting": "[3]", "result": 470, "unit": "µM"},
      {"measurement": "distribution in liver", "setting": "[4]; when delivered in micelles", "result": "low distribution in liver"}
    ]},
    {"smiles": "CCCCCCCCCCCCCCCCCCN1/C(=C/C=C/C=C/C=C/C2=[N+](CCCCCCCCCCCCCCCCCC)c3ccccc3C2(C)C)C(C)(C)c2ccccc21.[I-]", "note": "[free DiR]", "values": [
      {"measurement": "presence in the spinal cord", "setting": "[4]; mice, lateral image at 1 h", "result": "not observed"},
      {"measurement": "brain distribution (lateral images)", "setting": "[4]; mice, tail vein injection, 5 μg DiR, lateral images at 1 h", "result": "no significant brain distribution"}
    ]}
  ]
}
